Where two headings read alike, the source gives them in different places. Peptide text beside a SMILES is read from it.
Assays:
[1] = target: T1, bradykinin receptor of the B2 class (rat uterus) (Rattus norvegicus, UniProt P25023); assay: Rat uterus (RU) in vitro, antagonism of bradykinin
T1 construct: concentration effect curves to bradykinin (BK) on rat uterus in vitro; from tissue; host or cells: rat uterus
T1 sequence (P25023 1-396): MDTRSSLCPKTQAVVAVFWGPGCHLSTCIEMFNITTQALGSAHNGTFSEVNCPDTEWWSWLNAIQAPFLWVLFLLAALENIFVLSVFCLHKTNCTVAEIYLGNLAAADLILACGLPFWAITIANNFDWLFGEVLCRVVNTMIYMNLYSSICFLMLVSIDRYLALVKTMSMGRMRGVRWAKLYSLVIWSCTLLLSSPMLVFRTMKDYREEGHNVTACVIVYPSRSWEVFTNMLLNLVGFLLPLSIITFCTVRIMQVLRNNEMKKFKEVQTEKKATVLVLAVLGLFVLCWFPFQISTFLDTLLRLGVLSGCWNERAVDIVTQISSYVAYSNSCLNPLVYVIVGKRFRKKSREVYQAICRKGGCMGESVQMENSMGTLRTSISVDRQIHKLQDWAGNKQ
How it was run: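 Isolated rat uterus; bradykinin antagonism expressed as pA2, the negative log molar antagonist concentration that halves agonist potency. After the highest antagonist concentration, tissues were washed extensively and percent recovery was recorded.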

[2] = target: T2, bradykinin receptor of the B2 class (rabbit jugular vein) (Oryctolagus cuniculus, UniProt Q28642); assay: Rabbit jugular vein (RJV) in vitro, antagonism of bradykinin; settings: for RJV % REC: recovery after wash
T2 construct: from tissue; host or cells: rabbit jugular vein
T2 sequence (Q28642 1-367): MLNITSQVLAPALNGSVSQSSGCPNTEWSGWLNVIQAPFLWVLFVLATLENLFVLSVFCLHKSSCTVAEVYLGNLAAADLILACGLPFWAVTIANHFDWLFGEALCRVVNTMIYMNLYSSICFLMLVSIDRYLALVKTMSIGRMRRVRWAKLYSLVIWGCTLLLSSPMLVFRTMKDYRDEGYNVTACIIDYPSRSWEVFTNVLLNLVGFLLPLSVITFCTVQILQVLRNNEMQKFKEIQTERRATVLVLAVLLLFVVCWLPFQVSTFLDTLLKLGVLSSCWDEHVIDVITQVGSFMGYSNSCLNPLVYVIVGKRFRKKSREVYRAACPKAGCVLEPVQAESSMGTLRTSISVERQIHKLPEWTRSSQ
Description: Thus in vitro studies were performed on standard assay systems, namely, guinea-pig ileum (GPI), rat uterus (RU) and rabbit jugular vein (RJV). […] The potency of each compound was assessed as a pA2 value according to the method of Arunlakshana & Schild, Br. J. Pharmacol. Chemother., 14:48-58 (1959). The PA2 can be defined as the negative logarithm of the molar concentration of the antagonist in the presence of which the potency of the agonist is reduced two-fold, i.e. twice the amount of agonist is required to produce a given response in the presence of, than in the absence of, the antagonist. A high potency of antagonism is indicated by a high PA2 value, i.e., a low concentration of antagonist is effective.
The percentage recovery (% Rec) was also determined for compounds with respect to each assay. Percentage recovery is a measure of the duration of action, the lower the percentage recovery value, the greater the duration of action of the compound.

[3] = target: T3, bradykinin receptor of the B2 class (guinea-pig ileum) (Cavia porcellus, UniProt O70526)
T3 sequence (O70526 1-372): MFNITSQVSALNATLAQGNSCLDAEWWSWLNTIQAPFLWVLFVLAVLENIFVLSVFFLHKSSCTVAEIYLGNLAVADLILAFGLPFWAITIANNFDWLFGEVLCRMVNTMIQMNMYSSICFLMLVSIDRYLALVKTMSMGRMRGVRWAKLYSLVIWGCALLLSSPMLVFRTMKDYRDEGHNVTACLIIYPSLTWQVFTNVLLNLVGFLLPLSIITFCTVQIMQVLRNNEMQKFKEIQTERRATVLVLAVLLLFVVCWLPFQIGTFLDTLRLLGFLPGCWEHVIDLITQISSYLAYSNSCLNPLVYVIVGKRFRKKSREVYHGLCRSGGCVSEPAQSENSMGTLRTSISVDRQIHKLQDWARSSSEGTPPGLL

[4] = target: T3, bradykinin receptor of the B2 class (guinea-pig ileum); remark: listed apart in the source
[5] = test system: bradykinin-induced vascular permeability; assay: Rabbit skin vascular permeability (Evans Blue, intradermal bradykinin); format: in vivo
Description: In these experiments, two protocols were used. The first protocol used the classical assay in which bradykinin was injected intradermally either alone or in combination with the compound under investigation following intravenous administration of Evans Blue dye. Thirty minutes after intradermal injection of bradykinin with and without the compound, the animal was killed, its skin removed and the area of "blueing" (i.e., vascular permeability or edema) measured.
The second protocol involved pre-injecting the test compound either 15 or 30 minutes before injecting bradykinin in the same site. The results are shown in FIGS. 2B and 2C, respectively.

[6] = test system: bradykinin-induced hypotension; assay: Bradykinin-induced hypotension in the anesthetized rat; format: in vivo; settings: intravenous infusion 25 μg kg^-1 min^-1; bradykinin 4×10^-9 moles; FIG. 3

CC(C)C[C@H](NC(=O)[C@@H](Cc1ccccc1)NC(=O)[C@H](CSC1CC(=O)N(CCCCCCN2C(=O)CC(SC[C@H](NC(=O)[C@H](Cc3ccccc3)NC(=O)CNC(=O)[C@@H]3C[C@@H](O)CN3C(=O)[C@@H]3CCCN3C(=O)[C@H](CCCNC(=N)N)NC(=O)[C@H](N)CCCNC(=N)N)C(=O)N[C@H](Cc3ccccc3)C(=O)N[C@@H](CC(C)C)C(=O)N[C@@H](CCCNC(=N)N)C(=O)O)C2=O)C1=O)NC(=O)[C@H](Cc1ccccc1)NC(=O)CNC(=O)[C@@H]1C[C@@H](O)CN1C(=O)[C@@H]1CCCN1C(=O)[C@H](CCCNC(=N)N)NC(=O)[C@H](N)CCCNC(=N)N)C(=O)N[C@@H](CCCNC(=N)N)C(=O)O (stereo partly shown) [CP-0127] (HELM PEPTIDE1{[dR].R.P.[Hyp].G.F.C.[dF].L.R}|PEPTIDE2{[dR].R.P.[Hyp].G.F.C.[dF].L.R}|CHEM1{[O=C1CC([*:1])C(=O)N1CCCCCCN1C(=O)CC([*:2])C1=O]}$PEPTIDE1,CHEM1,7:R3-1:R1|PEPTIDE2,CHEM1,7:R3-1:R2$$$V2.0)
RU % REC ([1]; Table A, recovery after wash): 50%
% REC DIMER ([1]; Table C, rat uterus): 50%
pA2 DIMER ([1]; Table C, rat uterus): 8.8
% REC (40 MIN) ([1]; Table D, 40 min): 50%
pA2 (UTERUS) ([1]; Table D, effect of linker length): 8.8
RAT UTERUS % RECOVERED ([1]; Table E): 50%
RAT UTERUS pA2 ([1]; Table E): 8.8
% RECOVERY ([1]; Table F, rat uterus): 50%
Kb ([2]; Table A, read-out: RJV pA2 (converted)): 0.0316 nM
RJV % REC ([2]; Table A): 10%
Kb ([3]; pA2 GUINEA PIG ILEUM, Table B, Cys position scan, monomers and BMH dimers): ~20 nM
GPI pA2 ([4]; Table A): 7.7
GPI % REC ([4]; Table A, recovery after wash, lower = longer duration): 100%

CC(C)C[C@H](NC(=O)[C@@H](Cc1ccccc1)NC(=O)[C@H](CS)NC(=O)[C@H](Cc1ccccc1)NC(=O)CNC(=O)[C@@H]1C[C@@H](O)CN1C(=O)[C@@H]1CCCN1C(=O)[C@H](CCCNC(=N)N)NC(=O)[C@H](N)CCCNC(=N)N)C(=O)N[C@@H](CCCNC(=N)N)C(=O)O [CP-0126] (HELM PEPTIDE1{[dR].R.P.[Hyp].G.F.C.[dF].L.R}$$$$V2.0)
Inhibition of bradykinin-induced vascular permeability, co-injected ([5]; intradermal, injected in combination with bradykinin, FIG. 2A): more potent than CP-0127
Inhibition of bradykinin-induced vascular permeability, pre-injected ([5]; pre-injected 15 or 30 minutes before bradykinin in the same site, FIGS. 2B/2C): significantly less effective
Recovery of bradykinin concentration effect curve after washing ([1]; rat uterus, after highest antagonist concentration, FIGS. 1A/1B): almost returns to that seen in the control
Inhibition of hypotensive response to bradykinin [6]: almost totally ineffective
Kb [2]: 1.58 nM
RJV % REC ([2]; Table A): 60%
Kb [3]: 501 nM
Kb ([3]; GPI pA2, Table A): 398 nM
GPI pA2 [4]: ≈ 6.3

From patent publication US5416191A, “Bradykinin antagonists” (Cortech, Inc., priority 1993, dated 1995)
